In patent publication EP2385948B1, “FUSED THIAZOLO AND OXAZOLO PYRIMIDINONES” (Torrent Pharmaceuticals Limited, priority 2009, dated 2011):

System: erythropoietin
Experiment: In vitro erythropoietin induction (ELISA of cell culture supernatant)
Settings: for fold induction at 200 µM: read-out: EPO fold induction, Hep3B cell line, 200 uM, 16 hours, relative to vehicle control
Method: Hep3B cell line (ATCC HB8064) was employed. Induction of erythropoietin was carried out for the indicated dose of compounds for 16 hours duration. At the end of 16 hours, cell culture medium was collected and centrifuged to remove any debris. Supernatant obtained was analyzed for erythropoietin by ELISA (R&D systems, USA). The results were expressed as fold induction as compared to vehicle control.

SMILES	fold induction at 200 µM (Homo sapiens, Hep3B, 16 h)	further results
CC(C)CC(=O)N1CCc2c(sc3nc(O)c(C(=O)NCC(=O)O)c(=O)n23)C1 [Compound 4, {[2-Hydroxy-7-(3-methyl-butyryl)-4-oxo-5,6,7,8-tetrahydro-4H-9-thia-1,4a,7-triaza-fluorene-3-carbonyl]-amino}-acetic acid]	2 to 4	
O=C(O)CNC(=O)c1c(O)nc2sc3c(n2c1=O)CCCC3 [Compound 1, [(2-Hydroxy-4-oxo-5,6,7,8-tetrahydro-4H-9-thia-1,4a-diaza-fluorene-3-carbonyl)-amino]-acetic acid]		EPO fold induction (Hep3B cell line, 50 uM, 16 hours, relative to vehicle control): +++ (+++ indicates 5-8 fold)
O=C(O)CNC(=O)c1c(O)nc2sc3c(n2c1=O)CCC3 [Compound 11, [(2-Hydroxy-4-oxo-7,8-dihydro-4H,6H-cyclopenta[4,5]thiazolo[3,2-a]pyrimidine-3-carbonyl)-amino]-acetic acid]	5 to 8	
O=C(O)CNC(=O)c1c(O)nc2sc3c(n2c1=O)CCN(c1ccc(C(F)(F)F)cn1)C3 [Compound 18, {[2-Hydroxy-4-oxo-7-(5-trifluoromethyl-pyridin-2-yl)-5,6,7,8-tetrahydro-4H-9-thia-1,4a,7-triaza-fluorene-3-carbonyl]-amino}-acetic acid]	9 to 16	
CS(=O)(=O)N1CCc2c(sc3nc(O)c(C(=O)NCC(=O)O)c(=O)n23)C1 [Compound 3, [(2-Hydroxy-7-methanesulfonyl-4-oxo-5,6,7,8-tetrahydro-4H-9-thia-1,4a,7-triaza-fluorene-3-carbonyl)-amino]-acetic acid]	2 to 4	
CC(C)(C)C1CCc2c(sc3nc(O)c(C(=O)NCCC(=O)O)c(=O)n23)C1 (stereo not shown) [Compound 15, 3-[(7-tert-Butyl-2-hydroxy-4-oxo-5,6,7,8-tetrahydro-4H-9-thia-1,4a-diaza-fluorene-3-carbonyl)-amino]-propionic acid]	< 2	
CC1(C)CCc2sc3nc(O)c(C(=O)NCC(=O)O)c(=O)n3c2C1 [Compound 60, [(2-Hydroxy-6,6-dimethyl-4-oxo-5,6,7,8-tetrahydro-4H-9-thia-1,4a-diaza-ftuorene-3-carbonyl)-amino]-acetic acid]	5 to 8	
O=C(O)CNC(=O)c1c(O)nc2sc3c(n2c1=O)CCN(C(=O)Cc1ccc(Cl)cc1)C3 [Compound 28, ({7-[2-(4-Chloro-phenyl)-acetyl]-2-hydroxy-4-oxo-5,6,7,8-tetrahydro-4H-9-thia-1,4a,7-triaza-fluorene-3-carbonyl}-amino)-acetic acid]	9 to 16	
O=C(O)CNC(=O)c1c(O)nc2sc3c(n2c1=O)CCN(C(=O)C1CC1)C3 [Compound 9, [(7-Cyclopropanecarbonyl-2-hydroxy-4-oxo-5,6,7,8-tetrahydro-4H-9-thia-1,4a,7-triaza-fluorene-3-carbonyl)-amino]-acetic acid]	5 to 8	
N#Cc1cccnc1N1CCc2c(sc3nc(O)c(C(=O)NCC(=O)O)c(=O)n23)C1 [Compound 36, {[7-(3-Cyano-pyridin-2-yl)-2-hydroxy-4-oxo-5,6,7,8-tetrahydro-4H-9-thia-1,4a,7-triaza-fluorene-3-carbonyl]-amino}-acetic acid]		fold induction at 12.5 µM (Homo sapiens, Hep3B, 16 h, read-out: EPO fold induction, Hep3B cell line, 12.5 uM, 16 hours, relative to vehicle control): < 2
O=C(O)CCNC(=O)c1c(O)nc2sc3c(n2c1=O)CCCCC3 [Compound 30, 3-[(2-Hydroxy-4-oxo-6,7,8,9-tetrahydro-4H,5H-10-thia-1,4a-diaza-benzo[a]azulene-3-carbonyl)-amino]-propionic acid]	< 2	
COc1ccc(CN2CCc3c(sc4nc(O)c(C(=O)NCC(=O)O)c(=O)n34)C2)cc1 [Compound 31, {[2-Hydroxy-7-(4-methoxy-benzyl)-4-oxo-5,6,7,8-tetrahydro-4H-9-thia-1,4a,7-triaza-fluorene-3-carbonyl]-amino}-acetic acid]	5 to 8	
O=C(O)CNC(=O)c1c(O)nc2sc3c(n2c1=O)CCN(C(=S)Nc1ccc(F)cc1)C3 [Compound 24, {[7-(4-Fluoro-phenylthiocarbamoyl)-2-hydroxy-4-oxo-5,6,7,8-tetrahydro-4H-9-thia-1,4a,7-triaza-fluorene-3-carbonyl]-amino}-acetic acid]	5 to 8	
